This note sets out measurements from BindingDB's records for doi:10.7270/Q2959G0B (Nmmlsc, 2009).

SMILES strings stand for the structures.

The target in one test is Ras-related C3 botulinum toxin substrate 1 (Mus musculus, UniProt P63001). Briefly: blockers of fluorescent GTP loading onto wildtype Rac1 – biochemical, pyrazoline analogs, multiplex, flow cytometry, Ki, SAR follow-up (AID 2055).
Conditions: not given
(In general: In flow cytometry, cells or beads pass a laser one at a time.)
In general, EC50 refers to the concentration giving half of the maximal effect. For the compound `O=S(=O)(O)c1ccc(N2N=C(c3ccccc3)CC2c2ccccc2)cc1` (centres undefined) [UNM-0000305834], the response was half-maximal at 30 µM (EC50).

The same test, now with this note: inactive by the depositor's call.
Turning to `NS(=O)(=O)c1ccc(N2N=C(c3ccccc3)CC2c2ccccc2Br)cc1` (centres undefined) [4-[3-(2-bromophenyl)-5-phenyl-3,4-dihydropyrazol-2-yl]benzenesulfonamide], the EC50 is 30 µM. This counts as double-digit micromolar. Still for that read-out and setting: the figure for `COc1ccc(C2CC(c3ccc(Cl)cc3)=NN2c2ccccc2)cc1OC` (centres undefined) [UNM-0000305858] is 30 µM; for `COc1ccc(C2CC(c3ccccc3)=NN2c2cccc(S(N)(=O)=O)c2)cc1` (centres undefined) [3-[3-(4-methoxyphenyl)-5-phenyl-3,4-dihydropyrazol-2-yl]benzenesulfonamide] it is 30 µM; for `COc1ccc(C2CC(c3cccnc3)=NN2c2ccc(S(N)(=O)=O)cc2)cc1` (centres undefined) it is 30 µM. In turn, `FC(F)(F)c1ccccc1C1CC(c2ccc(Br)cc2)=NN1c1ccccc1` (centres undefined) [5-(4-bromophenyl)-2-phenyl-3-[2-(trifluoromethyl)phenyl]-3,4-dihydropyrazole] had an EC50 of 30 µM.

Consider `Cc1cccc(C2CC(c3ccccc3)=NN2c2ccc(S(N)(=O)=O)cc2)c1` (centres undefined), for which the midpoint of the response, the EC50, lay at 30 µM. The same measure, in the same setting: the figure for `NS(=O)(=O)c1ccc(N2N=C(c3ccccc3)CC2c2ccccc2)cc1` (centres undefined) [4-(3,5-diphenyl-3,4-dihydropyrazol-2-yl)benzenesulfonamide] is 30 µM; for `COc1ccc(C2CC(c3ccccc3)=NN2c2ccc(S(N)(=O)=O)cc2)cc1OC` (centres undefined) [UNM-0000305823] it is 13.2 µM; for `COc1ccc(C2CC(c3cccc(Br)c3)=NN2c2ccc(S(N)(=O)=O)cc2)cc1` (centres undefined) [UNM-0000306113] it is 30 µM. The same measure, in the same setting: then `COc1ccc(C2CC(c3ccc(F)cc3)=NN2c2ccccc2)cc1OC` (centres undefined) [UNM-0000305864], with 30 µM; and `COc1ccc(C2CC(c3ccccc3)=NN2c2ccc(C(N)=O)cc2)cc1` (centres undefined) [UNM-0000305870], with 30 µM. Still for that read-out and setting: the figure for `COc1ccc(C2=NN(c3cccc(F)c3)C(c3ccc(OC)cc3)C2)cc1` (centres undefined) [2-(3-fluorophenyl)-3,5-bis(4-methoxyphenyl)-3,4-dihydropyrazole] is 30 µM; for `NS(=O)(=O)c1ccc(N2N=C(c3ccccc3)CC2c2ccc(Br)cc2)cc1` (centres undefined) [UNM-0000306160] it is 30 µM; for `NS(=O)(=O)c1ccc(N2N=C(c3ccccc3)CC2c2ccc(Cl)cc2)cc1` (centres undefined) [4-[3-(4-chlorophenyl)-5-phenyl-3,4-dihydropyrazol-2-yl]benzenesulfonamide] it is 30 µM. The compound `COc1ccc(C2=NN(c3ccc(S(N)(=O)=O)cc3)C(c3ccc(OC)cc3)C2)cc1` (centres undefined) [4-[3,5-bis(4-methoxyphenyl)-3,4-dihydropyrazol-2-yl]benzenesulfonamide] came in with an EC50 of 30 µM. In turn, `COc1ccccc1N1N=C(c2ccccc2)CC1c1ccccc1` (centres undefined) [UNM-0000305855] registered an EC50 of 30 µM. The same measure, in the same setting: the figure for `COc1ccc(C2CC(c3cccs3)=NN2c2ccc(S(N)(=O)=O)cc2)cc1` (centres undefined) [KUC103438N] is 30 µM; for `COc1ccc(C2=NN(c3ccc(Cl)c(Cl)c3)C(c3ccc(OC)cc3)C2)cc1` (centres undefined) [2-(3,4-dichlorophenyl)-3,5-bis(4-methoxyphenyl)-3,4-dihydropyrazole] it is 30 µM; for `Cc1ccccc1N1N=C(c2ccccc2)CC1c1ccc(N(C)C)cc1` (centres undefined) [N,N-dimethyl-4-[2-(2-methylphenyl)-5-phenyl-3,4-dihydropyrazol-3-yl]aniline] it is 30 µM.

The compound `CCc1ccc(C2=NN(c3ccc(S(N)(=O)=O)cc3)C(c3ccc(F)cc3)C2)cc1` (centres undefined) had an EC50 of 30 µM. Still for that read-out and setting: then `COc1ccc(C2CC(C(C)(C)C)=NN2c2ccc(S(N)(=O)=O)cc2)cc1` (centres undefined) [KUC103450N], with 30 µM; and `COc1ccc(C2CC(c3ccccc3OC)=NN2c2ccc(S(N)(=O)=O)cc2)cc1` (centres undefined), with 30 µM; and `COc1ccc(C2CC(c3ccccc3)=NN2c2ccc(C(=O)O)cc2)cc1` (centres undefined) [UNM-0000306085], with 30 µM. Still for that read-out and setting: then `COc1ccc(C2CC(c3ccc(N(C)C)cc3)=NN2c2ccc(S(N)(=O)=O)cc2)cc1` (centres undefined) [KUC103422N], with 30 µM; and `O=[N+]([O-])c1ccc([N+]2=N[C-](c3ccccc3)CC2c2ccc(O)cc2)cc1` (centres undefined) [UNM-0000305838], with 30 µM.

Take `CN(C)c1ccc(C2CC(c3ccc(Cl)cc3)=NN2c2ccccc2)cc1` (centres undefined) [UNM-0000305847]: a half-maximal effect (EC50) was put at 30 µM. On the same count and under the same terms, then `O=S(=O)(c1ccc(N2N=C(c3ccc(Br)cc3)CC2c2ccccc2)cc1)C(F)F` (centres undefined) [5-(4-bromophenyl)-2-[4-(difluoromethylsulfonyl)phenyl]-3-phenyl-3,4-dihydropyrazole], with 30 µM; and `COc1ccc(C2CC(c3ccccc3C)=NN2c2ccc(S(N)(=O)=O)cc2)cc1` (centres undefined) [UNM-0000306152], with 30 µM; and `COc1ccc(C2CC(c3cccc(Cl)c3)=NN2c2ccc(S(N)(=O)=O)cc2)cc1` (centres undefined) [UNM-0000306134], with 30 µM. Turning to `O=C(O)c1ccc(N2N=C(c3ccccc3)CC2c2ccccc2)cc1` (centres undefined), the EC50 was 54.7 µM. Against the preceding compound, the EC50 is about 1.8-fold higher. `COc1ccc(C2CC(c3ccc(Br)cc3)=NN2c2ccc(S(N)(=O)=O)cc2)cc1` (centres undefined) [UNM-0000306138] returned an EC50 of 30 µM.

The compound `NS(=O)(=O)c1ccc(N2N=C(c3ccc(Cl)cc3)CC2c2ccccc2)cc1` (centres undefined) returned an EC50 of 30 µM. On the same count and under the same terms, then `CC(=O)Oc1ccc(C2=NN(c3ccccc3)C(c3ccccc3)C2)cc1` (centres undefined), with 5.65 µM; and `COc1ccc(C2CC(c3ccccc3)=NN2c2ccc(Cl)c(C(=O)O)c2)cc1` (centres undefined), with 30 µM. In the case of `COc1ccc(C2=NN(c3ccccc3F)C(c3ccc(F)cc3)C2)cc1` (centres undefined) [UNM-0000305860], the midpoint of the response, the EC50, lay at 30 µM. This counts as double-digit micromolar. With `COc1ccc(C2CC(c3ccc(F)cc3)=NN2c2cccc(F)c2)cc1OC` (centres undefined), the response was half-maximal at 0.027 µM (EC50). Still for that read-out and setting: the figure for `COc1ccc(C2=NN(c3ccccc3)C(c3ccccc3C(F)(F)F)C2)cc1` (centres undefined) is 30 µM. Same read-out and setting: the figure for `COc1ccc(C2CC(c3ccccc3Cl)=NN2c2ccc(S(N)(=O)=O)cc2)cc1` (centres undefined) [4-[5-(2-chlorophenyl)-3-(4-methoxyphenyl)-3,4-dihydropyrazol-2-yl]benzenesulfonamide] is 30 µM. Same read-out and setting: then `COc1ccc(C2CC(C)=NN2c2ccc(S(N)(=O)=O)cc2)cc1` (centres undefined) [4-[3-(4-methoxyphenyl)-5-methyl-3,4-dihydropyrazol-2-yl]benzenesulfonamide], with 30 µM. Turning to `Cc1ccc(-c2cc(C(F)(F)F)nn2-c2ccc(S(N)(=O)=O)cc2)cc1` [Celecoxib], the EC50 came out at 30 µM. In turn, `NS(=O)(=O)c1ccc(N2N=C(c3ccc(Br)cc3)CC2c2ccc(F)cc2)cc1` (centres undefined) [4-[5-(4-bromophenyl)-3-(4-fluorophenyl)-3,4-dihydropyrazol-2-yl]benzenesulfonamide] showed an EC50 of 0.014 µM.

The compound `COc1ccc(C2=NN(c3ccc(Cl)cc3)C(c3ccccc3F)C2)cc1` (centres undefined) [UNM-0000305863] registered an EC50 of 30 µM. The same measure, in the same setting: then `Cc1cccc(N2N=C(c3ccccc3)CC2c2ccccc2)c1` (centres undefined) [UNM-0000305835], with 30 µM; and `COc1ccc(C2C[C-](c3ccccc3)N=[N+]2c2ccc([N+](=O)[O-])cc2)cc1` (centres undefined) [3-(4-methoxyphenyl)-2-(4-nitrophenyl)-5-phenyl-3,4-dihydropyrazole], with 30 µM; and `COc1ccc(C2CC(c3cccc(C(F)(F)F)c3)=NN2c2ccc(S(N)(=O)=O)cc2)cc1` (centres undefined), with 30 µM.

The compound `O=S(=O)(c1ccc(N2N=C(c3ccccc3)CC2c2ccccc2)cc1)C(F)F` (centres undefined) returned a concentration giving a half-maximal response (EC50) of 30 µM. The same measure, in the same setting: the figure for `COc1ccc(C2CC(c3ccccc3C(F)(F)F)=NN2c2ccc(S(N)(=O)=O)cc2)cc1` (centres undefined) [KUC103474N] is 30 µM. On the same count and under the same terms, then `Clc1cccc(N2N=C(c3ccccc3)CC2c2ccccc2)c1` (centres undefined), with 30 µM; and `COc1ccc(C2CC(c3ccccc3F)=NN2c2ccc(S(N)(=O)=O)cc2)cc1` (centres undefined) [UNM-0000306110], with 30 µM; and `NS(=O)(=O)c1ccc(N2N=C(c3ccccc3)CC2c2cccc(Br)c2)cc1` (centres undefined) [UNM-0000306147], with 30 µM.

For `Brc1ccc(N2N=C(c3ccccc3)CC2c2ccccc2)cc1` (centres undefined), the midpoint of the response, the EC50, lay at 9.53 µM. On the same count and under the same terms, the figure for `Fc1ccc(C2=NN(c3cccc(Br)c3)C(c3ccccc3)C2)cc1` (centres undefined) [2-(3-bromophenyl)-5-(4-fluorophenyl)-3-phenyl-3,4-dihydropyrazole] is 30 µM; for `COc1ccc(C2CC(C3CCCCC3)=NN2c2ccc(S(N)(=O)=O)cc2)cc1` (centres undefined) [4-[5-cyclohexyl-3-(4-methoxyphenyl)-3,4-dihydropyrazol-2-yl]benzenesulfonamide] it is 30 µM. In turn, `COc1ccc(C2CC(c3ccc(F)cc3)=NN2c2ccc(S(N)(=O)=O)cc2)cc1` (centres undefined) [4-[5-(4-fluorophenyl)-3-(4-methoxyphenyl)-3,4-dihydropyrazol-2-yl]benzenesulfonamide] had an EC50 of 30 µM. In other words, the double-digit micromolar range. On the same count and under the same terms, then `COc1ccc(C2CC(c3ccc(C(F)(F)F)cc3)=NN2c2ccc(S(N)(=O)=O)cc2)cc1` (centres undefined) [4-[3-(4-methoxyphenyl)-5-[4-(trifluoromethyl)phenyl]-3,4-dihydropyrazol-2-yl]benzenesulfonamide], with 30 µM; and `CN(C)c1ccc(C2CC(c3ccccc3)=NN2c2ccccc2)cc1` (centres undefined) [4-(2,5-diphenyl-3,4-dihydropyrazol-3-yl)-N,N-dimethylaniline], with 30 µM; and `O=[N+]([O-])c1ccc([N+]2=N[C-](c3ccccc3)CC2c2ccccc2)cc1` (centres undefined), with 30 µM. The compound `CN(C)c1ccc(C2C[C-](c3ccccc3)N=[N+]2c2ccc([N+](=O)[O-])cc2)cc1` (centres undefined) registered an EC50 of 20.4 µM. The same measure, in the same setting: then `COc1ccc(C2CC(c3cccc(F)c3)=NN2c2ccc(S(N)(=O)=O)cc2)cc1` (centres undefined) [4-[5-(3-fluorophenyl)-3-(4-methoxyphenyl)-3,4-dihydropyrazol-2-yl]benzenesulfonamide], with 30 µM. On the same count and under the same terms, then `COc1ccc(C2CC(c3cccc(C)c3)=NN2c2ccc(S(N)(=O)=O)cc2)cc1` (centres undefined) [UNM-0000306153], with 30 µM; and `COc1ccccc1C1CC(c2ccccc2)=NN1c1ccccc1` (centres undefined), with 30 µM. On the same count and under the same terms, then `COc1ccccc1C1CC(c2ccccc2)=NN1c1ccc(S(N)(=O)=O)cc1` (centres undefined) [4-[3-(2-methoxyphenyl)-5-phenyl-3,4-dihydropyrazol-2-yl]benzenesulfonamide], with 30 µM; and `COc1ccc(C2CC(c3ccccc3Br)=NN2c2ccc(S(N)(=O)=O)cc2)cc1` (centres undefined) [UNM-0000306112], with 30 µM.
